Results on three molecules are retold here after patent US11203578B2, “Oxadiazole derivatives for the treatment of genetic diseases due to nonsense mutations” (UNIVERSITA' DEGLI STUDI DIPALERMO, priority 2017, dated 2021).

For series [1], the system named is pFLuc-opal (UGA stop mutation). Briefly: FLuc cell-based readthrough assay in HeLa FLuc-opal transfected cells. Conditions: 12 μM, 24 hours treatment, pFluc-opal HeLa cells, compared to untreated. An excerpt:
The results disclosed in (Pibiri I., Lentini L., Tutone M., Melfi R., Pace A., Di Leonardo A. Exploring the readthrough of nonsense mutations by non-acidic Ataluren analogues selected by ligand-based virtual screening. Eur. J. Med. Chem. 122 (2016) 429-435) have been refined with 3D-QSAR (quantitative structure-activity relationships) pharmacophore modelling. The endpoint to build QSAR models was the luciferase activity known data. These values were converted to pFLUC (−log FLUC) values. In order to find the common pharmacophore hypothesis, we divided the 24 compounds in three different classes of activity related to the FLUC values (Pharm set). We considered as active, compounds with FLUC values >4.52 (ATALUREN FLUC value), as inactives, compounds with FLUC values ≤4.00, and as moderate actives, compounds with 4.39≤FLUC values ≤4,51. Dataset was randomly split into a training set (19 compounds) for models generation, and test set (5 compounds) for the validation of developed models, as reported in Table 1.
To ascertain the effectiveness of the newly synthesized ataluren analogues in promoting the readthrough of premature termination codons was used the FLuc cell-based assay. To this aim HeLa cells were transfected transiently with the plasmids pFLuc-wild type (control) and pFLuc-opal (UGA stop mutation) (NIH Chemical Genomics Center, National Institutes of Health, Bethesda, USA). FLuc gene expression was then measured by luminescence.

The subject of series [2] is nsCFTR(G542X-opal). Briefly: Immunofluorescence analysis of CFTR in nsCFTR(G542X-opal) FRT cells. The format is cell-based, human. Conditions: 12 μM, 24 hours. How it is done: To work in a cell system containing exclusively nonsense mutations and in particular the more representative CFTR nonsense mutation, the G542X, FRT cells were engineered with a vector expressing nsCFTR (nonsense). To this aim, Site Directed Mutagenesis of the full-length CFTR cDNA cloned in the pTracer-Zeocin (pTCF-wild type) vector (Gaslini Hospital Genova, Italy) was performed (CFTR DNA available at NCBI Reference Sequence: NG_016465.4). To substitute the Glicine 542 coding codon GGA with a stop codon, was introduced a single nucleotide mutation. The first guanine of the codon, position 1624 of the cDNA, was changed in a thymine to introduce an opal nonsense mutation. We amplified the plasmid harbouring cDNA with the following primers: […]
To further evaluate the efficacy of NV914, NV848, NV930, FRT cells were transfected with the pTRACER vectors containing either the wild type CFTR or the nsCFTR(G542X-opal) cDNA and selected by Zeocin resistance. The advantage of the use of these cells is that they don't express cAMP dependent channels (as CFTR) or CFTR protein. The expression of the human CFTR wild type and nsCFTR(G542X-opal) in transfected FRT cells was evaluated by qRT-PCR and Western blot, as shown in FIG. 5.
The same FRT cells were then treated with NV914, NV848, NV930 (12 μM), and ATALUREN (12 μM) (as positive control) for 24 hours and the expression of the human CFTR wild type and nsCFTR(G542X-opal) was again evaluated by immunofluorescence analysis.
FRT cells transfected with a pTracer nsCFTR-G542X-opal vector the treated with NV848, NV914, NV930 (12 μM), and ATALUREN (12 μM) as positive control, for 24 hours and the expression of the human CFTR wild type and nsCFTR (nsCFTR-G542X-opal) was evaluated by immunofluorescence analysis.
In details, immunofluorescence analysis was used to detect the CFTR protein following the readthrough of the UGA stop codon in nsCFTR(opal) FRT cells untreated, treated with G418 as positive contro) and with PTC124 and NV848, Nv914, NV930 for 24 h. […] Nuclei (blue) were DAPI stained.

Series [3] has as its system nsCFTR-R553X-opal. Description: Immunofluorescence analysis of CFTR in nsCFTR-R553X-opal FRT cells. Type of series: cell-based, human. The settings on record: 12 μM, 24 hours. The procedure: (§1) FRT cells were also engineered with a vector expressing nsCFTR (nonsense). To this aim, Site […] Directed Mutagenesis of the full-length CFTR cDNA cloned in the pTracer Zeocin (pTCF-wild type) vector (provided by Gaslini Hospital Genova, Italy) was performed, the CFTR DNA is available at NCBI Reference Sequence NG_016465.4. With the aim of introducing in the CFTR cDNA single base mutations c1654t or c1657t to convert, respectively, […] 552 (caa>taa ochre) or Arginine 553 (cga>tga opal) in nonsense codons, site-directed mutagenesis of the full-length cDNA cloned in the pTracer Zeocin (pTCF-wild type) vector (provided by Gaslini Hospital Genova, Italy) was performed (CFTR DNA available at NCBI Reference Sequence: NG_016465.4). The pTCF-wild type vector was amplified by PCR with the following primers: […]
(§2) To further evaluate the efficacy of NV848, NV914 and NV930 FRT cells were transfected with the pTracer vectors containing either the WT-CFTR (CFTRWT) or the R553X-CFTR and the Q552X-CFTR (nsCFTR-R553X-opal, nsCFTR-Q552X ochre) human cDNA and selected by Zeocin resistance. The expression of the CFTRWT and nsCFTR CFTR (nsCFTR-R553X-opal, nsCFTR-Q552X ochre) in transfected FRT cells was evaluated by qRT-PCR. The nsCFTR-Q552X ochre, nsCFTR-R553X-opal FRT transfected cells were treated with NV848, (12 μM), and ATALUREN (12 μM) as positive control, for 24 hours and the expression of the human CFTR was evaluated by immunofluorescence analysis.

Series [4] deals with nsCFTR-Q552X ochre. Description: Immunofluorescence analysis of CFTR in nsCFTR-Q552X ochre FRT cells. The format is cell-based, human. Conditions: 12 μM, 24 hours. The procedure:
as §1, §2

The subject of series [5] is HeLa cells. Description: Cytotoxic effects and impact on cell proliferation in HeLa cells. Type of series: cell-based. Conditions: 12 μM. The procedure:
HeLa cells were used to determine the possible cytotoxic effects of our compounds and the impact on cell proliferation. In FIG. 7 are reported the percentages of dead cells and proliferating cells after treatment with 12 μM compounds and 12 μM ATALUREN.

`CCOC(=O)c1noc(-c2ccccc2)n1` [NV930, ethyl 5-phenyl-1,2,4-oxadiazole-3-carboxylate]: the luciferase activity result in series [1] is “significant increase of luciferase activity”. The “CFTR full-length expression and membrane localization” value in series [2] is “induced the CFTR full-length expression and membrane localization”; in series [3] it was “induced the CFTR full-length expression and membrane localization”; in series [4], “induced the CFTR full-length expression and membrane localization”. Moreover, the results for the dead cells in series [5] (24 h) and in series [5] (72 h) were 2% and 4%, respectively.
In the case of `O=C(Nc1noc(-c2c(F)c(F)c(F)c(F)c2F)n1)c1c(F)c(F)c(F)c(F)c1F` [NV914, 2,3,4,5,6-pentafluoro-N-(5-(perfluorophenyl)-1,2,4-oxadiazol-3-yl)benzamide], the luciferase activity result in series [1] is recorded as “significant increase of luciferase activity”. Moreover, the “CFTR full-length expression and membrane localization” value was “induced the CFTR full-length expression and membrane localization” in series [2]; “induced the CFTR full-length expression and membrane localization” in series [3]; “induced the CFTR full-length expression and membrane localization” in series [4]. The results for the dead cells in series [5] (24 h) and in series [5] (72 h) were 5% and 2%, respectively.
For the molecule `CC(=O)Nc1noc(C)n1` [NV848, 3-acetylamino-5-methyl-1,2,4-oxadiazole], in series [1], the luciferase activity entry is on record as “significant increase of luciferase activity”. For the same molecule, the “CFTR full-length expression and membrane localization” value in series [2] was “induced the CFTR full-length expression and membrane localization”; in series [3], “induced the CFTR full-length expression and membrane localization”; in series [4] it was “induced the CFTR full-length expression and membrane localization”. Besides, the figures for the dead cells in series [5] (24 h) and in series [5] (72 h) were 7% and 6%, respectively.
